Experimental data published in patent publication US20070009533A1 (priority 2005, published 2007).

Target: T1, MDR1 function in K562/R7 cells (Homo sapiens, UniProt P08183)
T1 construct: endogenous in cells; host or cells: K562/R7 cells
Type: cell-based
Experimental: The loaded and washed cells were cultured at 37° C. in 0.5 ml lacking or containing the indicated concentrations of drug for the indicated amount of time. Control cells were placed on ice immediately after loading and, as indicated by the symbol to the far right at MFI=1172, the cells had been loaded with dye.

T1 sequence (P08183 whole entry): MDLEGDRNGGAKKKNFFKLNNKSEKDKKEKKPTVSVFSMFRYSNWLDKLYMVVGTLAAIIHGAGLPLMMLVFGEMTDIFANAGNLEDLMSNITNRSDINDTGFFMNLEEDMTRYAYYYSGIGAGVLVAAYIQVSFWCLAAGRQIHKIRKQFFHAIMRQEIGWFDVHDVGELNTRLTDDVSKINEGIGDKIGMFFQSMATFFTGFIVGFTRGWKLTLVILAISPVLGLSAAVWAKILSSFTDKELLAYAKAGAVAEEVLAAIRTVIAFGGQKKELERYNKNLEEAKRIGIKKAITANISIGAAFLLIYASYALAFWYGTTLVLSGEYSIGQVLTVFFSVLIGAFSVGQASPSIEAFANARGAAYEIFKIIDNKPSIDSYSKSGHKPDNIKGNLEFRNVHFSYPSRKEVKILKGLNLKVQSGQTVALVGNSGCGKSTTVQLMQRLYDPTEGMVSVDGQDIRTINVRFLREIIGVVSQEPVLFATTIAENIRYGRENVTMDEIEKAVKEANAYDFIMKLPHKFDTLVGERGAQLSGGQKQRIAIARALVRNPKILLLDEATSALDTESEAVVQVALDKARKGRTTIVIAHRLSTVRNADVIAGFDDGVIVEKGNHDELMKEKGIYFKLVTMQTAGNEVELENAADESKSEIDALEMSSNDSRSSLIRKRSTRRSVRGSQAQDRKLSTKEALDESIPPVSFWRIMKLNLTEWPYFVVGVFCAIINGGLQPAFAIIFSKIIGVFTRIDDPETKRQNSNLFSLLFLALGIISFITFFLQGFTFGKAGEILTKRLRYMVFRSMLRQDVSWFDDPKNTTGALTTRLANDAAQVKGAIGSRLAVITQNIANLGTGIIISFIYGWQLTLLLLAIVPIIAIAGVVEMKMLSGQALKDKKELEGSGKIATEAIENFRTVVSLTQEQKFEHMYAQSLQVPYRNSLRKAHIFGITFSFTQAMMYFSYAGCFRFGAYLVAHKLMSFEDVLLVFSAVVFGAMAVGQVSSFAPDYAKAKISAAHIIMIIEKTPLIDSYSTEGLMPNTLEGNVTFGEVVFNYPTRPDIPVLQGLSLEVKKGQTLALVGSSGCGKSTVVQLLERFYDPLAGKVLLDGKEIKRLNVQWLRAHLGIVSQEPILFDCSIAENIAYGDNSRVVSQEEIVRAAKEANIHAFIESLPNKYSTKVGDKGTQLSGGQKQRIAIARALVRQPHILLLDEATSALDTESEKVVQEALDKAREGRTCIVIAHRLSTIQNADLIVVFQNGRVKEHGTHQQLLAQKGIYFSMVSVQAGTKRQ

Compound: O[C@@H](COc1cccc2ncccc12)CN1CCN([C@@H]2c3ccccc3[C@@H]3[C@H](c4ccccc42)C3(F)F)CC1 [zosuquidar]
- effect on dye release during efflux incubation: inhibited dye release in a concentration-dependent manner
